Source: the NIST ThermoML archive (doi:10.1016/j.fluid.2006.05.032)

Experiment: xn = mol fraction of the nth substance listed
Conditions: Liquid, Vibrating tube method

Cc1ccccc1 [toluene] + CCCO
mass density [kg/m3]
Conditions	x2 = 0	x2 = 0.125	x2 = 0.25	x2 = 0.375	x2 = 0.5	x2 = 0.625	x2 = 0.75	x2 = 0.875
293.15 K, 100 kPa	867.1	860.6	854.5	848.1	841.2	833.5	825.1	815.3
293.15 K, 5000 kPa	870.6	864.1	858.2	851.7	844.7	837	828.7	818.9
293.15 K, 10000 kPa	874.2	867.7	861.7	855.1	848.4	840.6	832.3	822.6
293.15 K, 15000 kPa	877.6	871.2	865.2	858.6	851.8	844.1	835.8	826.1
293.15 K, 20000 kPa	881.1	874.5	868.5	861.9	855.1	847.4	839.2	829.4
293.15 K, 25000 kPa	884.2	877.8	871.7	865.1	858.3	850.6	842.4	832.6
293.15 K, 30000 kPa	887.3	880.9	874.9	868.3	861.5	853.7	845.4	835.7
293.15 K, 35000 kPa	890.3	883.9	877.9	871.3	864.5	856.7	848.4	838.7
293.15 K, 40000 kPa	893.3	886.9	880.9	874.2	867.4	859.7	851.3	841.7
293.15 K, 45000 kPa	896.1	889.7	883.7	877.1	870.3	862.6	854.1	844.4
293.15 K, 50000 kPa	898.9	892.5	886.5	879.9	873.1	865.3	856.9	847.2
293.15 K, 55000 kPa	901.6	895.2	889.2	882.6	875.7	868	859.6	849.7
293.15 K, 60000 kPa	904.2	897.9	891.8	885.2	878.3	870.6	862.1	852.3
293.15 K, 65000 kPa	906.7	900.5	894.4	887.7	880.9	873.1	864.7	854.8
303.15 K, 100 kPa	857.5	851.1	845	838.6	832	824.4	816.1	806.6
303.15 K, 5000 kPa	861.4	855	848.9	842.4	835.9	828.3	820.1	810.6
303.15 K, 10000 kPa	865.1	858.8	852.7	846.2	839.8	832.2	824	814.3
303.15 K, 15000 kPa	869	862.4	856.4	849.9	843.4	835.8	827.8	818.3
303.15 K, 20000 kPa	872.4	866	859.9	853.4	846.9	839.4	831.3	821.7
303.15 K, 25000 kPa	875.8	869.4	863.3	856.8	850.4	842.8	834.6	825.2
303.15 K, 30000 kPa	879	872.6	866.6	860.1	853.5	846	837.7	828.3
303.15 K, 35000 kPa	882.1	875.8	869.8	863.3	856.7	849.2	840.8	831.4
303.15 K, 40000 kPa	885.2	878.9	872.8	866.4	859.7	852.3	843.9	834.4
303.15 K, 45000 kPa	888.2	881.8	875.6	869.3	862.6	855.1	846.9	837.3
303.15 K, 50000 kPa	891.1	884.8	878.5	872.2	865.5	858	849.7	840.1
303.15 K, 55000 kPa	894	887.6	881.4	875.1	868.6	860.9	852.5	843
303.15 K, 60000 kPa	896.7	890.3	884.1	877.8	871.1	863.6	855.2	845.6
303.15 K, 65000 kPa	899.2	893	886.7	880.4	873.7	866.1	857.8	848.2
313.15 K, 100 kPa	847.8	841.3	835.1	829	822.4	815.2	807.3	797.9
313.15 K, 5000 kPa	852	845.5	839.3	833.1	826.6	819.3	811.5	802.1
313.15 K, 10000 kPa	856.1	849.6	843.4	837.2	830.7	823.4	815.5	806.2
313.15 K, 15000 kPa	859.9	853.6	847.4	841.2	834.7	827.5	819.3	810
313.15 K, 20000 kPa	863.5	857.3	851.1	844.9	838.4	831.2	823	813.6
313.15 K, 25000 kPa	867.1	860.9	854.7	848.5	841.9	834.7	826.5	817.1
313.15 K, 30000 kPa	870.5	864.3	858.1	851.9	845.4	838.1	829.9	820.5
313.15 K, 35000 kPa	873.8	867.6	861.5	855.3	848.7	841.4	833.2	823.7
313.15 K, 40000 kPa	877	870.8	864.7	858.4	851.9	844.6	836.4	826.9
313.15 K, 45000 kPa	880.2	874	867.8	861.6	855	847.7	839.4	830
313.15 K, 50000 kPa	883.3	876.9	870.8	864.5	857.9	850.6	842.5	833
313.15 K, 55000 kPa	886.2	879.9	873.8	867.5	860.9	853.5	845.3	835.9
313.15 K, 60000 kPa	889	882.7	876.6	870.4	863.7	856.3	848.2	838.7
313.15 K, 65000 kPa	891.8	885.5	879.3	873.1	866.5	859.1	850.9	841.4
323.15 K, 100 kPa	838.4	831.7	825.5	819.3	812.9	805.9	798.2	789.3
323.15 K, 5000 kPa	842.7	836.2	829.9	823.8	817.3	810.3	802.6	793.6
323.15 K, 10000 kPa	847	840.5	834.3	828	821.6	814.5	806.9	797.9
323.15 K, 15000 kPa	851.1	844.5	838.4	832.2	825.8	818.7	810.9	801.8
323.15 K, 20000 kPa	855	848.5	842.3	836.1	829.7	822.6	814.8	805.7
323.15 K, 25000 kPa	858.9	852.2	846.1	839.9	833.5	826.3	818.6	809.5
323.15 K, 30000 kPa	862.5	855.9	849.7	843.5	837.1	829.9	822.2	813
